From patent US20250281554A1, “COMPOSITION FOR IMPROVING DRUG SENSITIVITY OF ANTIBACTERIAL DRUG TO METHICILLIN-RESISTANT STAPHYLOCOCCUS AUREUS (MRSA), COMPOSITION FOR TREATING OR PREVENTING MRSA INFECTION, AND COMPOSITION FOR REDUCING VIRULENCE OF MRSA” (priority 2021, published 2025) come the findings set out here.

Values after ≈ are worked out from the molar mass of the structure shown. Bounds are passed on as bounds.

One assay has as its system wild-type strain (MRSA2007-13 strain). Put plainly: drug sensitivity test (MIC method), wild-type strain. On drug sensitivity rating (MIC method), WT: key: resistance (R); sensitivity(S). The class given is cell-based, methicillin-resistant Staphylococcus aureus. Particulars: MRSA2007-13 WT; dry plate, cultured 20 hours; in µg/mL (unit assumed). As to the method: (§1) Next, the drug sensitivities of a wild-type strain (MRSA2007-13 strain) and mutated strains having a mutation in both mgrA and femA (SAm1-201, SAm1-206, SAm1-210) to antibacterial drugs were measured in a drug sensitivity test (MIC method). The test method will be explained. A bacterial solution (a wild-type strain or a mutant) precultured overnight was diluted with sterile physiological saline to reach OD600≈0.26, and 25 μL of the bacterial solution was added to 12 mL of Mueller-Hinton liquid medium (Eiken Chemical Co., Ltd.). To each well of a dry plate (Eiken Chemical Co., Ltd.), […] of the bacterial solution was added, and cultured for 20 hours. After culturing, the MIC was determined based on determination criteria for the dry plate.
For `CO/N=C(\C(=O)N[C@@H]1C(=O)N2C(C(=O)O)=C(/C=C\c3scnc3C)CS[C@H]12)c1csc(N)n1` [CDTR, cefditoren], the “MIC, WT” value is on record as above 2.

In the case of `Cc1nnc(SCC2=C(C(=O)O)N3C(=O)[C@@H](NC(=O)Cn4cnnn4)[C@H]3SC2)s1` [CEZ, cefazolin], the “MIC, WT” value is recorded as above 128.

In the case of `CC/C=C(\C(=O)N[C@@H]1C(=O)N2C(C(=O)O)=C(COC(N)=O)CS[C@H]12)c1csc(N)n1` [CFPN, cefcapene], the “MIC, WT” value was above 2.

Turning to `C[C@H]1c2cccc(O)c2C(=O)C2=C(O)[C@]3(O)C(=O)C(C(N)=O)=C(O)[C@@H](N(C)C)[C@@H]3[C@@H](O)[C@@H]21` [DOXY, doxycycline], the “MIC, WT” value was 8.

As for `CCN1CCN(c2cc3c(cc2F)c(=O)c(C(=O)O)cn3C2CC2)CC1` [ERFX, enrofloxacin], the “MIC, WT” value is 128.

As to `CN(C)[C@@H]1C(O)=C(C(N)=O)C(=O)[C@@]2(O)C(O)=C3C(=O)c4c(O)cccc4[C@@](C)(O)[C@H]3[C@H](O)[C@@H]12` [OTC, oxytetracycline], the “MIC, WT” value is given as 128.

For the compound penicillin [PCG], the “MIC, WT” value was above 16.

The same assay, now with this note: MRSA2007-13 WT; symbol in brackets.
With `Cc1nnc(SCC2=C(C(=O)O)N3C(=O)[C@@H](NC(=O)Cn4cnnn4)[C@H]3SC2)s1` [CEZ, cefazolin], the “drug sensitivity rating (MIC method), WT” value was “(R)”.

Another assay has as its system MRSA2007-13 SAm1-201 (mgrA mutation and femA mutation). The assay is described as follows: drug sensitivity test (MIC method), SAm1-201. The class given is cell-based, methicillin-resistant Staphylococcus aureus. To be noted: dry plate, cultured 20 hours, unit assumed. How it is done: as §1
As to `CO/N=C(\C(=O)N[C@@H]1C(=O)N2C(C(=O)O)=C(/C=C\c3scnc3C)CS[C@H]12)c1csc(N)n1` [CDTR, cefditoren], the MIC, SAm1-201 is below 0.5 µg/mL.

The compound `CC/C=C(\C(=O)N[C@@H]1C(=O)N2C(C(=O)O)=C(COC(N)=O)CS[C@H]12)c1csc(N)n1` [CFPN, cefcapene] showed an MIC, SAm1-201 below 0.5 µg/mL.

Turning to `C[C@H]1c2cccc(O)c2C(=O)C2=C(O)[C@]3(O)C(=O)C(C(N)=O)=C(O)[C@@H](N(C)C)[C@@H]3[C@@H](O)[C@@H]21` [DOXY, doxycycline], the MIC, SAm1-201 was 4 µg/mL (≈ 9 µM).

For the compound `CCN1CCN(c2cc3c(cc2F)c(=O)c(C(=O)O)cn3C2CC2)CC1` [ERFX, enrofloxacin], the MIC, SAm1-201 came out at 64 µg/mL (≈ 178 µM).

As for `CN(C)[C@@H]1C(O)=C(C(N)=O)C(=O)[C@@]2(O)C(O)=C3C(=O)c4c(O)cccc4[C@@](C)(O)[C@H]3[C@H](O)[C@@H]12` [OTC, oxytetracycline], the MIC, SAm1-201 stood at 64 µg/mL (≈ 139 µM).

penicillin [PCG]: the MIC, SAm1-201 was 2 µg/mL.

The same assay, now with this note: symbol in brackets.
Consider `Cc1nnc(SCC2=C(C(=O)O)N3C(=O)[C@@H](NC(=O)Cn4cnnn4)[C@H]3SC2)s1` [CEZ, cefazolin], for which the “drug sensitivity rating (MIC method), SAm1-201” value is “(S)”.

The next assay has as its system MRSA2007-13 SAm1-206 (mgrA mutation and femA mutation). Put plainly: drug sensitivity test (MIC method), SAm1-206. In kind it is cell-based, methicillin-resistant Staphylococcus aureus. To be noted: dry plate, cultured 20 hours, unit assumed. As to the method: as §1
Consider `CO/N=C(\C(=O)N[C@@H]1C(=O)N2C(C(=O)O)=C(/C=C\c3scnc3C)CS[C@H]12)c1csc(N)n1` [CDTR, cefditoren], for which the MIC, SAm1-206 is below 0.5 µg/mL.

For the compound `Cc1nnc(SCC2=C(C(=O)O)N3C(=O)[C@@H](NC(=O)Cn4cnnn4)[C@H]3SC2)s1` [CEZ, cefazolin], the MIC, SAm1-206 came out at 1 µg/mL (≈ 2.2 µM).

Consider `CC/C=C(\C(=O)N[C@@H]1C(=O)N2C(C(=O)O)=C(COC(N)=O)CS[C@H]12)c1csc(N)n1` [CFPN, cefcapene], for which the MIC, SAm1-206 was below 0.5 µg/mL.

Turning to `C[C@H]1c2cccc(O)c2C(=O)C2=C(O)[C@]3(O)C(=O)C(C(N)=O)=C(O)[C@@H](N(C)C)[C@@H]3[C@@H](O)[C@@H]21` [DOXY, doxycycline], the MIC, SAm1-206 is 8 µg/mL (≈ 18 µM).

The compound `CCN1CCN(c2cc3c(cc2F)c(=O)c(C(=O)O)cn3C2CC2)CC1` [ERFX, enrofloxacin] gave an MIC, SAm1-206 of 64 µg/mL (≈ 178 µM).

As for `CN(C)[C@@H]1C(O)=C(C(N)=O)C(=O)[C@@]2(O)C(O)=C3C(=O)c4c(O)cccc4[C@@](C)(O)[C@H]3[C@H](O)[C@@H]12` [OTC, oxytetracycline], the MIC, SAm1-206 turned out to be 128 µg/mL (≈ 278 µM).

As to penicillin [PCG], the MIC, SAm1-206 came to 2 µg/mL.

Another assay deals with MRSA2007-13 SAm1-210 (mgrA mutation and femA mutation). The assay is described as follows: drug sensitivity test (MIC method), SAm1-210. Particulars: dry plate, cultured 20 hours, unit assumed. The class given is cell-based, methicillin-resistant Staphylococcus aureus. How it is done: as §1
The compound `CO/N=C(\C(=O)N[C@@H]1C(=O)N2C(C(=O)O)=C(/C=C\c3scnc3C)CS[C@H]12)c1csc(N)n1` [CDTR, cefditoren] registered an MIC, SAm1-210 below 0.5 µg/mL.

In turn, `Cc1nnc(SCC2=C(C(=O)O)N3C(=O)[C@@H](NC(=O)Cn4cnnn4)[C@H]3SC2)s1` [CEZ, cefazolin] returned an MIC, SAm1-210 of 0.25 µg/mL (≈ 0.55 µM).

Turning to `CC/C=C(\C(=O)N[C@@H]1C(=O)N2C(C(=O)O)=C(COC(N)=O)CS[C@H]12)c1csc(N)n1` [CFPN, cefcapene], the MIC, SAm1-210 was below 0.5 µg/mL.

As to `C[C@H]1c2cccc(O)c2C(=O)C2=C(O)[C@]3(O)C(=O)C(C(N)=O)=C(O)[C@@H](N(C)C)[C@@H]3[C@@H](O)[C@@H]21` [DOXY, doxycycline], the MIC, SAm1-210 is 4 µg/mL (≈ 9 µM).

`CCN1CCN(c2cc3c(cc2F)c(=O)c(C(=O)O)cn3C2CC2)CC1` [ERFX, enrofloxacin] registered an MIC, SAm1-210 of 32 µg/mL (≈ 89 µM).

As to `CN(C)[C@@H]1C(O)=C(C(N)=O)C(=O)[C@@]2(O)C(O)=C3C(=O)c4c(O)cccc4[C@@](C)(O)[C@H]3[C@H](O)[C@@H]12` [OTC, oxytetracycline], the MIC, SAm1-210 amounted to 128 µg/mL (≈ 278 µM).

penicillin [PCG] displayed an MIC, SAm1-210 of 4 µg/mL.
